This passage reports Ki and Kb results from patent publication US12187727B2, “Methods for antagonizing a melanocortin 4 receptor” (Pfizer Inc., priority 2020, dated 2025).

One test has as its target hMC4R (Homo sapiens (Human), UniProt P32245). Put plainly: In vitro binding affinity assay using hMC4R (radioligand competition binding, [125I]-(Nle4, D-Phe7)-α-MSH). Particulars: geometric mean, read-out: Ki (nM) geometric mean. On the procedure:
Example AA. In Vitro Binding Affinity Assay Using hMC4R
The binding affinity of test compounds at the […] (hMC4R) was assessed using a radioligand competition binding assay. […] Cell membranes were bulked and frozen until the assay was performed.
Compounds were solubilized in 100% dimethyl sulfoxide (DMSO) to a concentration of 30 mM. A 10-point intermediate dilution series using half log dilutions was created in 100% DMSO with a top concentration of 0.03 mM. […] The final compound range in the assay was 300 nM to 0.01 nM with a final DMSO concentration of 1%. […] The exact concentration of radioligand used for each experiment was determined by liquid scintillation counting and adjusted if necessary.
Frozen hMC4R cell membranes were thawed and Dounce homogenized. Homogenates were resuspended in assay buffer to a concentration of 2 μg per well. […] The plates were incubated for 2 hours at room temperature.
The raw data (expressed as counts per minute) were analyzed using ActivityBase (IDBS Data Management Software). […] Equilibrium dissociation constant for inhibitor of ligand and receptor interaction (Ki) values were then calculated from the IC50 values using the Cheng-Prusoff equation: Ki=IC50/(1+([L]/Kd)), where [L] is the concentration of the radioligand used in the experiment and Kd is the affinity of the radioligand (determined in separate saturation experiments).
On the technique in general: In a radioligand displacement assay an active substance lowers the binding of a labelled ligand.

Test [1] has as its target human Melanocortin-4 receptor (MC4R) (Homo sapiens (Human), UniProt P32245). The test is described as follows: Functional in vitro MC4R antagonist potency assay (cAMP HTRF in CHO cells). Type of test: cell-based. Particulars: geometric mean, read-out: Kb (nM) Antagonist geometric. Here is the method:
Example BB. Functional In Vitro MC4R Antagonist Potency Assay
The functional in vitro antagonist potency for test compounds was determined by monitoring intracellular cyclic adenosine monophosphate (cAMP) levels in Chinese hamster ovary (CHO—) cells stably expressing the human Melanocortin-4 receptor (MC4R). Following agonist activation, human MC4R associates with the G-protein complex causing the Gα subunit to exchange bound GDP for GTP, followed by dissociation of the Ga-GTP complex. The activated Gα subunit can couple to downstream effectors to regulate the levels of second messengers or cAMP within the cell. Thereby, determination of intracellular cAMP levels allows for pharmacological characterization. Intracellular cAMP levels are quantitated using a homogenous assay utilizing the Homogeneous Time-Resolved Fluorescence (HTRF) technology from CisBio. The method is a competitive immunoassay between native cAMP produced by cells and the cAMP labelled with the acceptor dye, d2. The two entities then compete for binding to a monoclonal anti-cAMP antibody labeled with cryptate. The specific signal is inversely proportional to the concentration of cAMP in the cells.
Test compounds were solubilized to 30 mM in 100% dimethyl sulfoxide (DMSO) and stored. […] The final compound concentration range in the assay was 400 nM to […], with a final DMSO concentration of 0.1%.
(95% O2: 5% CO2) overnight, with micro-clime lids (Labcyte, Cat No. LLS-0310). […] Cells were incubated with compound for 30 minutes at 37° C. (95% O2: 5% CO2) before addition of 5 μL EC80, agonist stimulation (200 nM α-melanocyte stimulating hormone, aMSH, Bachem) and another 30-minute incubation at 37° C. (95% O2: 5% CO2). Intracellular cAMP levels were quantified as per Cisbio's protocol (5 uL of D2 and then 5 uL Cryptate, incubated for 1-2 hours at room temperature).
Data expressed as nM cAMP were then normalized to control wells using Activity Base (IDBS). Zero percent effect (ZPE) was defined as nM of cAMP generated from ECK, agonist stimulation (200 nM aMSH). In the absence of an antagonist control compound, one hundred percent effect (HPE) was defined as nM of cAMP generated from assay buffer/vehicle only.

Setting [2] is: human MC4R in CHO cells, cAMP HTRF, 200 nM aMSH challenge, Kb from IC50 by Leff-Dougall equation.

Like-named read-outs stand apart in the source and are kept apart here.

hMC4R, sequence (P32245 whole entry): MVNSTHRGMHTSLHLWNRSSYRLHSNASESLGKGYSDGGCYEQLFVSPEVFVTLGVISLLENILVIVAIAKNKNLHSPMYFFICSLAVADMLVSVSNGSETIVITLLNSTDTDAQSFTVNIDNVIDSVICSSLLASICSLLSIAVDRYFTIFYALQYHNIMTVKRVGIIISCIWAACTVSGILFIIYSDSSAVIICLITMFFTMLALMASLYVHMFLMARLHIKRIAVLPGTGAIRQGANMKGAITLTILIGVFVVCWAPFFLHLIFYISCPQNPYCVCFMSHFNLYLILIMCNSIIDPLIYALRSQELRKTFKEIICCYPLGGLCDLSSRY
human Melanocortin-4 receptor (MC4R), sequence (P32245 whole entry): as above

As usually defined, the Ki is a dissociation constant, usually derived from enzyme kinetics or from competition with a known ligand. As to `Cc1nc2c(cc1-c1ncccn1)CC[C@@]1(CCN(C(=O)C(C)c3ccc(OC(F)F)nc3)C1)N2` (single isomer, unassigned) [Example 5], the Ki at hMC4R was above 200 nM.
`Cc1ccc2c(n1)NC1(CCN(C(=O)Cc3ccc(F)cc3)C1)CC2C` (single isomer, unassigned) [Example 9, 1-(4,7-dimethyl-3,4-dihydro-1H-spiro[1,8-naphthyridine-2,3′-pyrrolidin]-1′-yl)-2-(4-fluorophenyl)ethan-1-one]: the Ki at hMC4R came to 380 nM.
On the same count and under the same terms, with `Cc1ccc2c(n1)NC1(CCN(C(=O)Cc3ccc(F)cc3)C1)CC2C` (single isomer, unassigned) [Example 10, 1-(4,7-dimethyl-3,4-dihydro-1H-spiro[1,8-naphthyridine-2,3′-pyrrolidin]-1′-yl)-2-(4-fluorophenyl)ethan-1-one] the figure was 440 nM; with `Cc1ccc2c(n1)NC1(CCN(C(=O)Cc3ccc(F)cc3)C1)CC2C` (single isomer, unassigned) [Example 11, 1-(4,7-dimethyl-3,4-dihydro-1H-spiro[1,8-naphthyridine-2,3′-pyrrolidin]-1′-yl)-2-(4-fluorophenyl)ethan-1-one], above 2200 nM.
On to `Cc1ccc2c(n1)NC1(CCN(C(=O)Cc3ccc(F)cc3)C1)CC2C` (single isomer, unassigned) [Example 12, 1-(4,7-dimethyl-3,4-dihydro-1H-spiro[1,8-naphthyridine-2,3′-pyrrolidin]-1′-yl)-2-(4-fluorophenyl)ethan-1-one], for which the inhibition constant Ki on hMC4R is above 2200 nM.
By Kb is commonly meant the equilibrium dissociation constant of an antagonist, usually derived from a functional assay. For `COc1cc([C@@H](C)C(=O)N2CC[C@@]3(CCc4cc(-c5nc6n(n5)CCC6(F)F)c(C)nc4N3)C2)c(F)cn1` [Example 147, (2R)-1-[(2S)-6-(7,7-difluoro-6,7-dihydro-5H-pyrrolo[12-b][1,2,4]triazol-2-yl)-7-methyl-3,4-dihydro-1H-spiro[1,8-naphthyridine-2,3′-pyrrolidin]-1′-yl]-2-(5-fluoro-2-methoxypyridin-4-yl)propan-1-one], the antagonist dissociation constant (Kb) in test [1] (setting [2]) was determined as 0.57 nM.
For `COc1cc([C@@H](C)C(=O)N2CC[C@@]3(CCc4cc(-c5cnsc5)c(C)nc4N3)C2)c(F)cn1` [Example 150, (2R)-2-(5-fluoro-2-methoxypyridin-4-yl)-1-[(2S)-7-methyl-6-(1,2-thiazol-4-yl)-3,4-dihydro-1H-spiro[1,8-naphthyridine-2,3′-pyrrolidin]-1′-yl]propan-1-one], the antagonist dissociation constant (Kb) in test [1] (setting [2]) was 9 nM.
In the case of `COc1cc([C@@H](C)C(=O)N2CC[C@@]3(CCc4cc(-c5cnc(C)nc5)c(C)nc4N3)C2)c(F)cn1` [Example 151, (2R)-2-(5-fluoro-2-methoxypyridin-4-yl)-1-[(2S)-7-methyl-6-(2-methylpyrimidin-5-yl)-3,4-dihydro-1H-spiro[1,8-naphthyridine-2,3′-pyrrolidin]-1′-yl]propan-1-one], the Kb in test [1] (setting [2]) was 40 nM.
Take `COc1cc([C@@H](C)C(=O)N2CC[C@@]3(CCc4cc(-c5cnc(C)s5)c(C)nc4N3)C2)c(F)cn1` [Example 153, (2R)-2-(5-fluoro-2-methoxypyridin-4-yl)-1-[(2S)-7-methyl-6-(2-methyl-1,3-thiazol-5-yl)-3,4-dihydro-1H-spiro[1,8-naphthyridine-2,3′-pyrrolidin]-1′-yl]propan-1-one]: the Kb in test [1] (setting [2]) was 15 nM.
As for `COc1cc([C@@H](C)C(=O)N2CC[C@@]3(CCc4cc(-c5cnn6cccnc56)c(C)nc4N3)C2)c(F)cn1` [Example 154, (2R)-2-(5-fluoro-2-methoxypyridin-4-yl)-1-[(2S)-7-methyl-6-(pyrazolo[1,5-a]pyrimidin-3-yl)-3,4-dihydro-1H-spiro[1,8-naphthyridine-2,3′-pyrrolidin]-1′-yl]propan-1-one], in test [1] (setting [2]), the Kb was determined as 9.5 nM.
With `COc1cc([C@@H](C)C(=O)N2CC[C@@]3(CCc4cc(-c5cncc(C)n5)c(C)nc4N3)C2)c(F)cn1` [Example 156, (2R)-2-(5-fluoro-2-methoxypyridin-4-yl)-1-[(2S)-7-methyl-6-(6-methylpyrazin-2-yl)-3,4-dihydro-1H-spiro[1,8-naphthyridine-2,3′-pyrrolidin]-1′-yl]propan-1-one], the antagonist equilibrium constant (Kb) in test [1] (setting [2]) was 20 nM.
In the case of `COc1cc([C@@H](C)C(=O)N2CC[C@@]3(CCc4cc(-c5cnc(C)cn5)c(C)nc4N3)C2)c(F)cn1` [Example 158, (2R)-2-(5-fluoro-2-methoxypyridin-4-yl)-1-[(2S)-7-methyl-6-(5-methylpyrazin-2-yl)-3,4-dihydro-1H-spiro[1,8-naphthyridine-2,3′-pyrrolidin]-1′-yl]propan-1-one], the Kb in test [1] (setting [2]) was 23 nM.
For the compound `COc1cc([C@@H](C)C(=O)N2CC[C@@]3(CCc4cc(-c5nccnc5C)c(C)nc4N3)C2)c(F)cn1` [Example 164, (2R)-2-(5-fluoro-2-methoxypyridin-4-yl)-1-[(2S)-7-methyl-6-(3-methylpyrazin-2-yl)-3,4-dihydro-1H-spiro[1,8-naphthyridine-2,3′-pyrrolidin]-1′-yl]propan-1-one], the Kb in test [1] (setting [2]) is above 57 nM.
On to `COc1cc([C@@H](C)C(=O)N2CC[C@@]3(CCc4cc(-c5cccc(C(F)F)n5)c(C)nc4N3)C2)c(F)cn1` [Example 181, (2R)-1-{(2S)-6-[6-(difluoromethyl)pyridin-2-yl)-7-methyl-3,4-dihydro-1H-spiro[1,8-naphthyridine-2,3′-pyrrolidin]-1′-yl}-2-(5-fluoro-2-methoxypyridin-4-yl)propan-1-one], for which the Kb in test [1] (setting [2]) came to 14 nM.
Same read-out and setting: in the case of `COc1cc([C@@H](C)C(=O)N2CC[C@@]3(CCc4cc(-c5nc(C)n(C(F)F)n5)c(C)nc4N3)C2)c(F)cn1` [Example 188, (2R)-1-{(2S)-6-[1-(difluoromethyl)-5-methyl-1H-1,2,4-triazol-3-yl]-7-methyl-3,4-dihydro-1H-spiro[1,8-naphthyridine-2,3′-pyrrolidin]-1′-yl}-2-(5-fluoro-2-methoxypyridin-4-yl)propan-1-one] it was 0.086 nM; in that of `COc1cc([C@@H](C)C(=O)N2CC[C@@]3(CCc4cc(-c5nc(C(F)F)n(C6CC6)n5)c(C)nc4N3)C2)c(F)cn1` [Example 189, (2R)-1-{(2S)-6-[1-cyclopropyl-5-(difluoromethyl)-1H-1,2,4-triazol-3-yl]-7-methyl-3,4-dihydro-1H-spiro[1,8-naphthyridine-2,3′-pyrrolidin]-1′-yl}-2-(5-fluoro-2-methoxypyridin-4-yl)propan-1-one], 4.3 nM.
Consider `COc1cc([C@@H](C)C(=O)N2CC[C@@]3(CCc4cc(-c5cccc(OC(F)F)n5)c(C)nc4N3)C2)c(F)cn1` [Example 198, (2R)-1-{(2S)-6-[6-(difluoromethoxy)pyridin-2-yl]-7-methyl-3,4-dihydro-1H-spiro[1,8-naphthyridine-2,3′-pyrrolidin]-1′-yl}-2-(5-fluoro-2-methoxypyridin-4-yl)propan-1-one], for which, in test [1] (setting [2]), the Kb was determined as 8.3 nM.
Take `COc1cc([C@@H](C)C(=O)N2CC[C@@]3(CCc4cc(-c5ccc(C6CC6)nn5)c(C)nc4N3)C2)c(F)cn1` [Example 199, (2R)-1-[(2S)-6-(6-cyclopropylpyridazin-3-yl)-7-methyl-3,4-dihydro-1H-spiro[1,8-naphthyridine-2,3′-pyrrolidin]-1′-yl]-2-(5-fluoro-2-methoxypyridin-4-yl)propan-1-one]: the antagonist equilibrium constant (Kb) in test [1] (setting [2]) is above 54 nM.
Consider `COc1cc([C@@H](C)C(=O)N2CC[C@@]3(CCc4cc(-c5nccc(C(F)F)n5)c(C)nc4N3)C2)c(F)cn1` [Example 200, (2R)-1-{(2S)-6-[4-(difluoromethyl)pyrimidin-2-yl]-7-methyl-3,4-dihydro-1H-spiro[1,8-naphthyridine-2,3′-pyrrolidin]-1′-yl}-2-(5-fluoro-2-methoxypyridin-4-yl)propan-1-one], for which, in test [1] (cAMP HTRF in CHO cells expressing human MC4R, 200 nM aMSH, Kb by Leff-Dougall equation), the Kb is 0.59 nM.
